{"source": "patent EP4309652A1", "about": "“COMPOSITION FOR USE IN THE PREVENTION AND/OR TREATMENT OF DISEASES MEDIATED BY TLR4, IL1R, COX1/2 AND/OR RBP4” (Servizo Galego de Saúde (SERGAS), priority 2022, dated 2024)", "key": {"IL1R [1]": {"test_system": "IL1R", "assay": "RT-PCR, IL1β-induced mRNA expression of LCN2, IL6 and NOS2 in ATDC5 cells", "assay_type": "cell-based, murine", "details": "IL1β (0,5 ng/ml), 24h", "experimental": "(§1) ATDC-5 cells were seeded in 12-well plates. Cells were seeded in a monolayer. After adhesion and incubation overnight in serum-free conditions (starvation), ATDC5 cells were stimulated for 24 h with LPS [100 ng/ml] or IL-1β [0,5 ng/ml] in the presence or absence of the compounds of the invention [10-100 µM].\n(§2) RNA was extracted using E.Z.N.A solation reagent (Omega) according to manufacturer's protocol. Relative quantitation was performed using the ΔΔC Comparative Method and the MxPro software (Stratagene, CA, USA) as the ratio of each gene to the expression of the housekeeping gene. Data are shown as mean ± S.E.M (error bars) of at least three independent experiments and represented as fold-change vs. controls."}, "RBP4": {"test_system": "RBP4", "assay": "RBP4 mRNA expression in chondrocytes", "assay_type": "cell-based", "details": "basal or inflammatory conditions (LPS or IL1β), 50 and 100 µM of PJ", "experimental": "as §2"}, "IL1R [2]": {"test_system": "IL1R", "assay": "Western blot, NOS2 protein expression in IL1β-stimulated ATDC5 cells", "assay_type": "cell-based, murine", "details": "IL1β (0,5 ng/ml), 24h", "experimental": "as §1\n(§3) Whole-cell protein extraction was performed using lysis buffer (RIPA Buffer). Immunoblots were incubated with the appropriated antibodies [INOS (rabbit polyclonal antibody) diluted 1:1000 (Thermo Fisher Scientific, MA, USA), IG (anti-rabbit antibody) diluted 1:5000 (Jackson ImmunoResearch Laboratories Inc., USA), b-actin (mouse polyclonal antibody) (Thermo Fisher Scientific, MA, USA) diluted 1:6500 and IG (anti-mouse antibody) diluted 1:10000] (Jackson ImmunoResearch Laboratories Inc., USA).\n(§4) Then, all immunoblots were visualized using an Immobilon Western kit (Millipore, MA, USA). Blots densitometries were generated using a ChemiDoc MP Imaging System and analysed using Image J software (National Institutes of Health, Bethesda, MD, USA)."}, "TLR4 [3]": {"test_system": "TLR4", "assay": "Western blot, NOS2 protein expression in LPS-stimulated ATDC5 cells", "assay_type": "cell-based, murine", "details": "LPS (100 ng/ml), 24h", "experimental": "as §1, §3, §4"}, "[4]": {"test_system": "primary human osteoarthritis chondrocytes and osteoblasts", "assay": "RT-PCR, inflammatory and catabolic marker genes in TLR4- and IL1R-activated primary cells", "assay_type": "cell-based", "details": "50 µM, 24h, LPS (100 ng/ml) or IL1β (0,5 ng/ml)", "experimental": "as §2\nAccording to the results obtained in ATDC5 cells, we selected the concentration 50 µM and co-treated the primary cells with inflammatory stimuli for 24h at the same concentrations [LPS (100 ng/ml), and IL1β (0,5 ng/ml)]."}, "ATDC5 cells": {"test_system": "ATDC5 cells", "assay": "Nitrite assay (Griess reaction), NO production", "assay_type": "cell-based, murine", "details": "LPS (100 ng/ml) or IL1B (0,5 ng/ml), 24h", "experimental": "ATDC-5 cells were seeded in 12-well plates. Cells were seeded in a monolayer. After adhesion and incubation overnight in serum-free conditions (starvation), ATDC5 cells were stimulated for 24 h with LPS [100 ng/ml] or IL-1β [0,5 ng/ml] in the presence or absence of the compounds of the invention [10-100 µM]. As described above, 1×10^5 ATDC5 cells were seeded and treated for 24 h. Nitrite accumulation was determined in the culture medium using the Griess reaction. As previously described, after diazonium salt was dissolved, absorbance was measured at 550 nm in a microplate reader."}, "TLR4 [5]": {"test_system": "TLR4", "assay": "RT-PCR, LPS-induced mRNA expression of LCN2, IL6 and NOS2 in ATDC5 cells", "assay_type": "cell-based, murine", "details": "LPS (100 ng/ml), 24h", "experimental": "as §1, §2"}}, "note": "Entries after “also recorded” stand apart in the source; their conditions may differ.", "data": [{"compound": "CC(=O)OC(/C=C\\C1OC(=O)C=CC1OC(C)=O)CC(OC(C)=O)C(C)OC(C)=O", "note": "(stereo not drawn) [Pectinolide E]", "values": [{"measurement": "concentration of inhibitory activity on IL1β-induced mRNA expression", "setting": "IL1R [1]", "result": 50, "unit": "µM"}]}, {"compound": "CC(=O)OC(/C=C\\C1OC(=O)C=CC1O)CC(OC(C)=O)C(C)OC(C)=O", "note": "(stereo not drawn) [Pectinolide J]", "values": [{"measurement": "RBP4 mRNA expression", "setting": "RBP4", "result": "downregulates"}, {"measurement": "NOS2 protein expression (250 kDa dimer), IL1β-induced", "setting": "IL1R [2]", "result": "highest reduction of NOS2 expression"}, {"measurement": "NOS2 protein expression (250 kDa dimer), LPS-induced", "setting": "TLR4 [3]", "result": "highest reduction of NOS2 expression"}, {"measurement": "inflammatory and catabolic marker genes (LCN2, NOS2, IL6, MMP3) induced by the inflammatory stimuli", "setting": "[4]", "result": "maximum anti-inflammatory activity"}, {"measurement": "IL1β-induced expression of LCN2, IL6 and NOS2", "setting": "IL1R [1]", "result": "maximum inhibitory activity"}, {"measurement": "concentration of inhibitory activity on IL1β-induced mRNA expression", "setting": "IL1R [1]", "result": 10, "unit": "µM"}, {"measurement": "NO production induced by LPS and IL1β", "setting": "ATDC5 cells", "result": "maximum inhibitory activity"}, {"measurement": "concentration of maximum inhibitory activity on induced NO production", "setting": "ATDC5 cells", "result": "10 to 25", "unit": "µM"}, {"measurement": "LPS-induced mRNA expression of LCN2, IL6 and NOS2", "setting": "TLR4 [5]", "result": "highest anti-inflammatory activity"}]}, {"compound": "COc1ccc2c(c1)c(CC(=O)O)c(C)n2C(=O)c1ccc(Cl)cc1", "note": "[Indomethacin, reference compound]", "values": [{"measurement": "NO production induced by LPS and IL1β", "setting": "ATDC5 cells", "result": "did not suppress; also recorded: did not significantly inhibit"}]}, {"compound": "CC(=O)OC(/C=C\\C1CC=CC(=O)O1)CC(OC(C)=O)C(C)OC(C)=O", "note": "(stereo not drawn) [Hyptolide]", "values": [{"measurement": "concentration of inhibitory activity on IL1β-induced mRNA expression", "setting": "IL1R [1]", "result": 100, "unit": "µM"}]}]}
